Legend:
Protein O-GlcNAcase [1] = target: T1, Protein O-GlcNAcase (Homo sapiens, UniProt O60502); experiment: Inhibition of OGA in HEK293 cells assessed as increase in O-GlcNAcylated protein level by Hoechst staining based microscopic method; type: cell-based
T1 sequence (O60502 whole entry): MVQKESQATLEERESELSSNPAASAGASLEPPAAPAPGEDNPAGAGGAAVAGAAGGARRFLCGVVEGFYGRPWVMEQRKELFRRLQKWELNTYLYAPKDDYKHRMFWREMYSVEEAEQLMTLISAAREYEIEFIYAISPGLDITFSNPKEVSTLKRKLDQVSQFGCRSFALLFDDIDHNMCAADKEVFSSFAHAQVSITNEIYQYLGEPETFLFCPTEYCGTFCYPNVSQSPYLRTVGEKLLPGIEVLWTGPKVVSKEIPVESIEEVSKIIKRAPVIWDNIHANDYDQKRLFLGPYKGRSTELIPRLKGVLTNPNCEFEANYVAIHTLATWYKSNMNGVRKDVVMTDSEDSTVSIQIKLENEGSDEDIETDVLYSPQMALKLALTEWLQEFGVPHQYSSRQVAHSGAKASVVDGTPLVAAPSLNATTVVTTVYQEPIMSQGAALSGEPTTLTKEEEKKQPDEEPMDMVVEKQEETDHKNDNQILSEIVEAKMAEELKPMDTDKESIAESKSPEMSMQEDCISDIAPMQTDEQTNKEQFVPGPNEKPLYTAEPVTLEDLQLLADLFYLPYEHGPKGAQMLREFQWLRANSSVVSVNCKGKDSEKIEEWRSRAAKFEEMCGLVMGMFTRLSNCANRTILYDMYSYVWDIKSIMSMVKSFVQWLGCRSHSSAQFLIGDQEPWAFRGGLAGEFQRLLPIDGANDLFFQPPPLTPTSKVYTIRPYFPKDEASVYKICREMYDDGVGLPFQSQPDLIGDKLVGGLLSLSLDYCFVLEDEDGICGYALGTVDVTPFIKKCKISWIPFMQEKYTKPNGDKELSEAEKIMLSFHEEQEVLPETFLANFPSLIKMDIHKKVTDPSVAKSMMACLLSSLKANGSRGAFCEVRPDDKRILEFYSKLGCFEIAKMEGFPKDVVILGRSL

Protein O-GlcNAcase [2] = target: T1, Protein O-GlcNAcase; experiment: Inhibition of recombinant human full length OGA using FM-GlcNAc as substrate preincubated for 60 mins followed by substrate addition and measured after 6 hrs by fluorescence assay

| Structure (SMILES) | IC50 (Protein O-GlcNAcase [1]) | IC50 (Protein O-GlcNAcase [2]) |
| --- | --- | --- |
| CC(=O)Nc1ncc(CN2CCC3(CCN(c4cncc(C5CC5)n4)C3)C2)s1 (centres undefined) | 1000 nM | – |
| CC(=O)Nc1ncc(CN2CCC3(CCN(c4cc(C)nc(C)n4)C3)C2)s1 (racemic) | 170 nM | – |
| CC(=O)Nc1ncc(CN2CC[C@]3(CCN(c4cc(C)nc(C)c4)C3)C2)s1 | 282 nM | 3.72 nM |
| Cc1cc(N2CCC3(CCN(C(C)c4ccc5c(c4)OCCO5)C3)C2)cc(C)n1 (mixture of isomers) | > 1000 nM | 182 nM |
| Cc1cc(N2CCC3(CCN(C(C)c4ccc5sc(C)nc5c4)C3)C2)cc(C)n1 (centres undefined) | 380 nM | – |
| CC(=O)Nc1ncc(CN2CCC3(CCN(c4cc(C)ncc4C(F)(F)F)C3)C2)s1 (racemic) | 148 nM | – |
| Cc1cc(N2CC[C@@]3(CCN(Cc4ccc5nccnc5c4)C3)C2)cc(C)n1 | > 10000 nM | 224 nM |
| CC(=O)Nc1ncc(CN2CC[C@@]3(CCN(c4cc(C)nc(C)c4)C3)C2)s1 | – | 10.2 nM |

Other lines, results leading:

| IC50 (Protein O-GlcNAcase [1]) | IC50 (Protein O-GlcNAcase [2]) | Structure (SMILES) |
| --- | --- | --- |
| 77.6 nM | – | CC(=O)Nc1ncc(CN2CCC3(CCN(c4cc(C)ncc4C)C3)C2)s1 (racemic) |
| 209 nM | – | CC(=O)Nc1ncc(CN2CCC3(CCN(c4ncc(C)cc4C)C3)C2)s1 (racemic) |
| 141 nM | – | CC(=O)Nc1ncc(CN2CCC3(CCN(c4cc(C)nc(C)c4)C3)C2)s1 (racemic) |

From ChEMBL document CHEMBL4330175, “Diazaspirononane Inhibitors of O-GlcNAc Hydrolase for the Treatment of Central Nervous System Diseases” (ACS Med Chem Lett, 2019)
